Data published in patent US20170290820A1, “METHODS AND COMPOSITIONS FOR TREATING BETA-THALASSEMIA AND SICKLE CELL DISEASE” (Academia Sinica, priority 2013, published 2017).
≈ marks a conversion by molar mass, not a printed value. Where “and” joins values, the source holds several entries; their conditions need not be identical. Equal values may be shown once. Where a name gives a salt, the structure may show the parent alone. Read-outs that look alike come from different tables or passages of the source.

Key:
[1] = solubility in DMSO and H2O; type: physicochemical; conditions: for water-solubility (in words): comparison
[2] = system: γ globin gene; experiment: γ globin gene induction by relative quantitative RT-PCR; type: cell-based, human; conditions: for γ globin induction (IC50): Table 3, γ globin mRNA induction fold at the compound's IC50, 3 days; for EC (μM) induction of HU IC50 (2.3 fold): concentration inducing γ globin gene expression 2.3-fold, primary human erythroid cells
Protocol: (§1) After 3 days of drug-treatment, the total RNA was extracted by RNA Spin mini kit (Ge-Healthcare) and reverse-transcription was performed by using superscript II (Invitrogen) followed the manufactors instruction. Quantitative PCR was performed on LightCycler with using STBR green master mix followed the manufactors instruction (Roche). The absolute quantitative RT-PCR was calculated by the standard curve with supplying a known copy number of plasmids. The relative quantitative RT-PCR was normalized to the expression levels of the β-actin and compared to the mock control.
To search for new agents, which are capable of inducing the expression of γ globin, a series of naphthalimide derivatives with various substituent(s) on the naphthalene ring and the heterocyclic N-atom (A1-A14, B1-B4, C1-C5, D1, and E1-E3, FIG. 2) were synthesized. These derivatives were subjected to evaluating the γ globin induction abilities in differentiated peripheral blood mononuclear cells (PBMCs). The PBMCs isolated from the peripheral blood of donors were expanded and differentiated for a total of 14 days in a two-phase liquid culture. The resulted primary erythoid cells were then treated with different dosages of naphthalimide derivatives individually for another 3 days. The expression levels of the endogenous γ globin gene were estimated by relative quantitative RT-PCR and the proliferation rates of these cells were examined by AlamarBlue cell viability assay. […]; 2-4.5-folds induction of the γ globin gene expression in the compounds-treated cells (FIG. 3).

[3] = system: primary human erythroid cells; experiment: AlamarBlue cell viability / proliferation assay; conditions: 3 days
[4] = system: δ globin; experiment: absolute quantitative RT-PCR, proportion of δ globin mRNA; type: cell-based; conditions: primary human erythroid cells, at IC50, 3 days; mock 3.3%
Protocol: as §1
(§2) To evaluate the specificity of S51021, SS-2394, HU, and NaB in mediating globin genes activation, the amounts of individual P3-liked globin mRNAs were measured by absolute quantitative RT-PCR.
(§3) The primary human erythroid cells were treated with HU (145.9 μM), NaB (221.6 μM), S51021 (21.8 μM) or SS2394 (2.3 μM) for 3 days, and the expression levels of each globin mRNA were estimated by absolute quantitative RT-PCR analysis. The proportions of individual 3-like globin chains among the total 3-like globin mRNA are shown. Data are presented as the mean±SEM, N=3.

[5] = system: β globin; experiment: absolute quantitative RT-PCR, proportion of β globin mRNA; type: cell-based; conditions: primary human erythroid cells, at IC50, 3 days; mock 88.8%; listed as SS-2394, hydrochloride
Protocol: as §1, §2, §3

[6] = system: ε globin; experiment: absolute quantitative RT-PCR, proportion of ε globin mRNA; type: cell-based; conditions: primary human erythroid cells, at IC50, 3 days; mock 0.0%
Protocol: as §1, §2, §3

[7] = stability observed during biological evaluation; type: physicochemical; conditions: deaminated or converted into C6-hydroxy derivative
From the text: To optimize the biological activity and reduce the cytotoxicity of SS-2394 by structural modification, the core structure of naphthalimide (I) was modified by alternating the carbonyl function of benzo[de]isoquinoline-1,3(2H)-dione; reducing the carbonyl function to hydroxyl derivatives (II), which can be further converted into dehydroxylated derivatives III and IV (Scheme 1). During biological evaluation of SS-2394, it was observed that the C6-amino function in SS-2394 was unstable and can be deaminated or converted into the corresponding C6-hydroxy derivatives. Therefore, various substituent R to the C6 of benzo[de]isoquinolin ring were introduced. The substituent R can be H, NH2, NHCOCH3, NHR′, NR′2; wherein R′ can be a C1 to C5 alkyl group. The new compounds bear a N,N-dimethylaminoethyl hydrophilic side chain, which can form acid salts with various inorganic acids or organic acids. Thus, the compounds are water soluble compounds and are suitable for biological application.

[8] = water, H2O, read-out: solubility H2O
[9] = Table 1a, concentration reducing proliferation rate of primary human erythroid cells by 50%
[10] = Table 3, primary human erythroid cells, proliferation reduced by 50%

Row | water-solubility (in words) [1] | solubility [1, 8] [mM] | γ globin induction (IC50) [2] [fold] | EC (μM) induction of HU IC50 (2.3 fold) [2] [µM] | solubility ([1]; DMSO, organic solvent or mixture, read-out: solubility DMSO) [mM] | water-solubility (in words) ([1]; hydrochloride) | stability of the C6-amino function [7] | γ globin induction (IC50) ([2]; hydrochloride) [fold] | Compound | IC50 [3, 9] [µM] | IC50 [3, 10] [µM] | δ globin proportion of total β-like globin mRNA [4] [%] | β globin proportion of total β-like globin mRNA [5] | ε globin proportion of total β-like globin mRNA [6] [%] | water-solubility (in words) ([1]; listed as SS-2394, hydrochloride)
1 | – | – | – | 2.9 | 10 (≈ 2880 µg/mL) | – | – | – | Nc1ccc2c3c(cccc13)C(=O)N(c1ccccc1)C2=O [Compound E1, N-Phenyl-4-amino-1,8-naphthalimide] | 2.2 | 0.3 | – | – | – | –
2 | – | > 100 | – | 0.8 | – | greatly improved water-solubility | unstable | 4.0 | CN(C)CCN1C(=O)c2cccc3c(N)ccc(c23)C1=O [Compound E2, N-(2-dimethylamino-ethyl)-4-amino-1,8-naphthalimide hydrochloride] | 2.3 | – | 5.5 ± 0.4 | 82.3% and 82.3 ± 1.1% | 0.5 ± 0.1 | higher water-solubility than that of the parental compound S51021
3 | greatly improved water-solubility | > 100 | 2.7 | 7.4 | – | – | – | – | CN(C)CCCN1C(=O)c2cccc3c(N)ccc(c23)C1=O [Compound E3, N-(3-dimethylamino-propyl)-4-amino-1,8-naphthalimide hydrochloride] | 11.2 | 11.2 | – | – | – | –

Second part, the molecule before the results:

Row | Compound | water-solubility (in words) [1] | solubility [1, 8] [mM] | γ globin induction (IC50) [2] [fold] | EC (μM) induction of HU IC50 (2.3 fold) [2] [µM] | solubility ([1]; DMSO, organic solvent or mixture, read-out: solubility DMSO) [mM] | water-solubility (in words) ([1]; hydrochloride) | stability of the C6-amino function [7] | γ globin induction (IC50) ([2]; hydrochloride) [fold] | IC50 [3, 9] [µM] | IC50 [3, 10] [µM] | δ globin proportion of total β-like globin mRNA [4] [%] | β globin proportion of total β-like globin mRNA [5] | ε globin proportion of total β-like globin mRNA [6] [%] | water-solubility (in words) ([1]; listed as SS-2394, hydrochloride)
4 | CN(C)CCN1C(=O)c2cccc3cccc(c23)C1=O [Compound B1, N-(2-Dimethylamino-ethyl)-1,8-naphthalimide hydrochloride] | greatly improved water-solubility | > 100 | 4.1 | 4.7 | – | – | – | – | 10.7 | 10.7 | – | – | – | –
5 | CN(C)CCN1C(=O)c2cccc3c(Cl)ccc(c23)C1=O [Compound B4, N-(2-dimethylamino-ethyl)-4-chloro-1,8-naphthalimide hydrochloride] | greatly improved water-solubility | > 100 | 3.3 | 2.2 | – | – | – | – | 5 | 5 | – | – | – | –
